Results published in patent US8471005B2 (Cephalon, Inc., priority 2008, dated 2013).
Read-outs that look alike come from different tables or passages of the source.

How the values were obtained:
[1] = target: T1, ALK (Homo sapiens, UniProt Q9UM73); test: ALK Kinase Assay (ELISA/TRF, PLC-γ substrate); assay type: biochemical; settings: read-out: ALK Potency
T1 construct: host or cells: baculovirus expression system
Procedure, shortened: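 Wells were coated with 10 μg/mL phospholipase C-γ substrate in TBS, and the reaction was started by adding 30 ng/ml ALK enzyme and run at 37° C for 15 minutes. Phosphorylated product was detected with Eu-N1-labeled PT66 antibody, and IC50 values came from sigmoidal variable-slope fits of percent inhibition against log concentration.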

[2] = target: T2, JAK2 (Homo sapiens, UniProt O60674); test: Recombinant Human JAK2 Kinase Assay (TRF); assay type: biochemical; settings: read-out: JAK2 Potency
T2 construct: host or cells: baculovirus expression system
Procedure, shortened: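 Baculovirus-expressed JAK2 (15 ng/ml) phosphorylated a biotinylated 15-mer peptide captured on Neutravidin-coated plates, in 20 mM HEPES pH 7.2 with 0.2 μM ATP, 1 mM MnCl2, 0.1% BSA and 2.5% DMSO. Reaction ran 20 min at room temperature; phosphopeptide was detected by time-resolved fluorescence with Eu-N1-labelled PY100 antibody.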

[3] = ALK kinase inhibition, 1 μM ATP
[4] = JAK2 kinase inhibition, 0.2 μM ATP

T1 sequence (Q9UM73 19-1620): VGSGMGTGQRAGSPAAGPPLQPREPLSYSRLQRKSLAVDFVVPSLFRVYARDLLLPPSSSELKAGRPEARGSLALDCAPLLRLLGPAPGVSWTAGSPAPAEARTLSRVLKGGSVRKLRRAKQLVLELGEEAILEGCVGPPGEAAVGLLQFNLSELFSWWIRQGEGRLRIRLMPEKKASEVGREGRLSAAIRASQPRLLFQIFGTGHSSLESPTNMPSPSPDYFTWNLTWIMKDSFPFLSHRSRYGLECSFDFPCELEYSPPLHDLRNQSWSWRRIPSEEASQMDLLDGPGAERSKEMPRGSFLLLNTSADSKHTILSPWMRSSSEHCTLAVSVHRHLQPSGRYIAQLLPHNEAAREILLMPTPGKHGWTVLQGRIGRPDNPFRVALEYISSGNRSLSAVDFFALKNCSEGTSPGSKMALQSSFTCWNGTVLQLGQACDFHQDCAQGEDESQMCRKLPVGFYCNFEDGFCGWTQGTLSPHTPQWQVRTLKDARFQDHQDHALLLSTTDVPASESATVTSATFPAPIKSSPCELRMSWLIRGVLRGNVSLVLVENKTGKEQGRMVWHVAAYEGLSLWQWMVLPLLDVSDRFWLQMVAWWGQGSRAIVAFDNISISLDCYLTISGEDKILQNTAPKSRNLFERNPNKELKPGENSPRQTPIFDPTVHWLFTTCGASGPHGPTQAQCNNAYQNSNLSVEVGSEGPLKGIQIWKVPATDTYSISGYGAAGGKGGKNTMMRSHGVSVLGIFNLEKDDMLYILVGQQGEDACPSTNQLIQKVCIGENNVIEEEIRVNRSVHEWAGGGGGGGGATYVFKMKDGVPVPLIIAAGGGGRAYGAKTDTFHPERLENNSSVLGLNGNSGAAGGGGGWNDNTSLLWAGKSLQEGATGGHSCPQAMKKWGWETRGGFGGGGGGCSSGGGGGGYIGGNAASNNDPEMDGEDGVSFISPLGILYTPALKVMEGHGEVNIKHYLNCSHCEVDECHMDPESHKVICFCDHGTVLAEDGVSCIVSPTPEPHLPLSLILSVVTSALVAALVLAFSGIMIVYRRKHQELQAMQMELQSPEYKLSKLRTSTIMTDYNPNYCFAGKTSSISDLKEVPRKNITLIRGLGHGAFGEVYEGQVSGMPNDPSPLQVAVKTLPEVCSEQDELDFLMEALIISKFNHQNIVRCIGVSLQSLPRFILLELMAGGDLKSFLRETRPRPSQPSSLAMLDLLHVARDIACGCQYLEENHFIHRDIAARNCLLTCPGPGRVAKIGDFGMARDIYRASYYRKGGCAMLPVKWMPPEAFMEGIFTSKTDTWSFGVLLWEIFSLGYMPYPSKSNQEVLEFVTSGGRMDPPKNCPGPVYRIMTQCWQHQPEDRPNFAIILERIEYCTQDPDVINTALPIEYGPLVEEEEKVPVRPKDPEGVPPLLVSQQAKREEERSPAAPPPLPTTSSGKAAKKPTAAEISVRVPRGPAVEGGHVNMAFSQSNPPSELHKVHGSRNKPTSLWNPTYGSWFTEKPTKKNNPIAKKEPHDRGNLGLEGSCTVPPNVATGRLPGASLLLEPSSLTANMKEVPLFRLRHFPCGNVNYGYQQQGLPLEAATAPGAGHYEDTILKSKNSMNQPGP
T2 sequence (O60674 whole entry): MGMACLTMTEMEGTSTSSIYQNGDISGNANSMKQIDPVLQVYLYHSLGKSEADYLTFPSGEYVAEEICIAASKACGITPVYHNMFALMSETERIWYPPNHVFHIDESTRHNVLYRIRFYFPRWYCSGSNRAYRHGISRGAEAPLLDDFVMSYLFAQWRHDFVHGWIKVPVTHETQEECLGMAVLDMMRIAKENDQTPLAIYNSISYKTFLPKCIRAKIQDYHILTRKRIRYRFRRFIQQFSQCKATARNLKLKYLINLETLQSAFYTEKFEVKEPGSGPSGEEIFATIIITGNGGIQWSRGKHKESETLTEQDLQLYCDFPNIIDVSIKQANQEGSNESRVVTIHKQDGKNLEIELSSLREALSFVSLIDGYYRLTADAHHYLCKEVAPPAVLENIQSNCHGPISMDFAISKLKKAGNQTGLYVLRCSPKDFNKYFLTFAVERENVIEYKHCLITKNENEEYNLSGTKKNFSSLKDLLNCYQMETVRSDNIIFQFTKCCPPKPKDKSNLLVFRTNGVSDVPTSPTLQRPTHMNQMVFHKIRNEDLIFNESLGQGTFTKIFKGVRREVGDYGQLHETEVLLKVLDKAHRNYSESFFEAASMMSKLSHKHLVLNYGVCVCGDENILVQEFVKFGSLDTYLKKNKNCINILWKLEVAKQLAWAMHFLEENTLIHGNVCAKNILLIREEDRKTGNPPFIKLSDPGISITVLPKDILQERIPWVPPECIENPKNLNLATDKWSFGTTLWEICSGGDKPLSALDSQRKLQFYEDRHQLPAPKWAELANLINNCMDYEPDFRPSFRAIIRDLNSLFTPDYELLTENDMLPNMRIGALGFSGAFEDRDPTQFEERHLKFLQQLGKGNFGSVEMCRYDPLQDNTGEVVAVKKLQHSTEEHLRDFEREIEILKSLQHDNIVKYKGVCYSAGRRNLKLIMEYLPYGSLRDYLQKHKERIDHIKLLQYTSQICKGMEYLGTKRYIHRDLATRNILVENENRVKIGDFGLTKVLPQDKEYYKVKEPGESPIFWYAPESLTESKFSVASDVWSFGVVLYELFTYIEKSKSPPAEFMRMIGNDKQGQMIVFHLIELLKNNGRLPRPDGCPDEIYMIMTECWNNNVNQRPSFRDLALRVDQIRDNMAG

| Compound | IC50 [1, 3] | IC50 [2, 4] | IC50 ([1]; ALK Kinase Inhibition) | IC50 ([2]; JAK2 Kinase Inhibition) |
| --- | --- | --- | --- | --- |
| COc1ccc(Cl)cc1-c1ccc2cnc(Nc3ccc(N4CCN(C)CC4)cc3)nn12 [Example 17, [7-(5-Chloro-2-methoxy-phenyl)-pyrrolo[2,1-f][1,2,4]triazin-2-yl]-[4-(4-methyl-piperazin-1-yl)-phenyl]-amine] |  |  | < 0.1 µM | < 0.1 µM |
| COc1ccc(-c2ccc3cnc(Nc4ccc(C5=CCN(CC(N)=O)CC5)c(C(F)(F)F)c4)nn23)cn1 [Example 953, 2-(4-{4-[7-(6-Methoxy-pyridin-3-yl)-pyrrolo[2,1-f][1,2,4]triazin-2-ylamino]-2-trifluoromethyl-phenyl}-3,6-dihydro-2H-pyridin-1-yl)-acetamide] | 1 to 10 µM | < 0.1 µM |  |  |
| CC(C)(C)OCc1cccc(-c2ccc3cnc(Nc4cccc(N5CCOCC5)c4)nn23)c1 [Example 1560, [7-(3-tert-Butoxymethyl-phenyl)-pyrrolo[2,1-f][1,2,4]triazin-2-yl]-(3-morpholin-4-yl-phenyl)-amine] |  |  | > 10 µM | < 0.1 µM |
| CN1CCN(Cc2ccc(Nc3ncc4ccc(-c5ccc(S(C)(=O)=O)cc5)n4n3)cc2)CC1 [Example 355, [7-(4-Methanesulfonyl-phenyl)-pyrrolo[2,1-f][1,2,4]triazin-2-yl]-[4-(4-methyl-piperazin-1-ylmethyl)-phenyl]-amine] |  |  | 1 to 10 µM | < 0.1 µM |
| CS(=O)(=O)c1cccc(-c2ccc3cnc(Nc4ccc(C5CCNCC5O)cc4)nn23)c1 (centres unmarked) [Example 1018, 4-{4-[7-(3-methanesulfonyl-phenyl)-pyrrolo[2,1-f][1,2,4]triazin-2-ylamino]-phenyl}-piperidine-3-ol] | 0.1 to 1 µM | < 0.1 µM |  |  |
| CN(c1ccccc1-c1ccc2cnc(OC3CCN(c4ccc(N)cc4)CC3)nn12)S(C)(=O)=O [Example 634, N-(2-{2-[1-(4-Amino-phenyl)-piperidin-4-yloxy]-pyrrolo[2,1-f][1,2,4]triazin-7-yl}-phenyl)-N-methyl-methanesulfonamide] | 1 to 10 µM | 0.1 to 1 µM |  |  |
| CC(C)(C)NS(=O)(=O)c1cccc(-c2ccc3cnc(Nc4ccc5c(c4)CN(CC(N)=O)C5)nn23)c1 [Example 927, 2-{5-[7-(3-tert-Butylsulfamoyl-phenyl)-pyrrolo[2,1-f][1,2,4]triazin-2-ylamino]-1,3-dihydro-isoindol-2-yl}-acetamide] | 0.1 to 1 µM | < 0.1 µM |  |  |
| COc1cc2c(cc1Nc1ncc3ccc(-c4ccccc4OC)n3n1)CCN(C[C@@H](C)O)CC2 [Example 991, (R)-1-{7-Methoxy-8-[7-(2-methoxy-phenyl)-pyrrolo[2,1-f][1,2,4]triazin-2-ylamino]-1,2,4,5-tetrahydro-benzo[d]azepin-3-yl}-propan-2-ol] | < 0.1 µM | 0.1 to 1 µM |  |  |
| COc1ccccc1-c1ccc2cnc(Nc3cccc(OC4CCNCC4)c3)nn12 [Example 601, [7-(2-Methoxy-phenyl)-pyrrolo[2,1-f][1,2,4]triazin-2-yl]-[3-(piperidin-4-yloxy)-phenyl]-amine] | 0.1 to 1 µM | < 0.1 µM |  |  |
| Cn1cc(-c2ccc3cnc(Nc4cccc(-n5cccn5)c4)nn23)cn1 [Example 964, [7-(1-Methyl-1H-pyrazol-4-yl)pyrrolo[2,1f][1,2,4]triazin-2-yl]-(3-pyrazol-1-yl-phenyl)-amine] | 1 to 10 µM | < 0.1 µM |  |  |
| Cc1cc(Nc2ncc3ccc(-c4ccccc4N(C)S(C)(=O)=O)n3n2)cc2oc(=O)[nH]c12 [Example 628, N-Methyl-N-{2-[2-(4-methyl-2-oxo-2,3-dihydrobenzooxazol-6-ylamino)-pyrrolo[2,1-f][1,2,4]triazin-7-yl]phenyl}methanesulfonamide] | 0.1 to 1 µM | < 0.1 µM |  |  |
| COc1cc(-c2cccnc2)ccc1Nc1ncc2ccc(-c3ccccc3OC)n2n1 [Example 807, [7-(2-Methoxy-phenyl)-pyrrolo[2,1-f][1,2,4]triazin-2-yl]-(2-methoxy-4-pyridin-3-yl-phenyl)-amine] | 1 to 10 µM | > 10 µM |  |  |
| COc1ccccc1-c1ccc2cnc(Nc3ccc4c(c3OC)CN(C3COC3)C4)nn12 [Example 851, (4-Methoxy-2-oxetan-3-yl-2,3-dihydro-1H-isoindol-5-yl)-[7-(2-methoxy-phenyl)-pyrrolo[2,1-f][1,2,4]triazin-2-yl]-amine] | 0.1 to 1 µM | 0.1 to 1 µM |  |  |
| [7-(4-Methanesulfonyl-phenyl)-pyrrolo[2,1-f][1,2,4]triazin-2-yl]-(4-piperidin-1-yl-phenyl)-amine [Example 85] |  |  | > 10 µM | < 0.1 µM |
| C[C@H](O)CN1CCC(c2ccc(Nc3ncc4ccc(-c5cccc(N(C)S(C)(=O)=O)c5)n4n3)cc2)CC1 [Example 960, N-[3-(2-{4-[1-((S)-2-Hydroxy-propyl)-piperidin-4-yl]-phenylamino}-pyrrolo[2,1-f][1,2,4]triazin-7-yl)-phenyl]-N-methyl-methanesulfonamide] | 0.1 to 1 µM | < 0.1 µM |  |  |
| CN1CCN(C(=O)c2ccc(Nc3ncc4ccc(-c5cccnc5)n4n3)cc2)CC1 [Example 321, (4-Methyl-piperazin-1-yl)-[4-(7-pyridin-3-yl-pyrrolo[2,1-f][1,2,4]triazin-2-ylamino)-phenyl]-methanone] |  |  | 0.1 to 1 µM | < 0.1 µM |
| CNC(=O)CN1CCC(c2ccc(Nc3ncc4ccc(-c5ccccc5OC)n4n3)c(OC)c2)CC1 [Example 867, 2-(4-{3-Methoxy-4-[7-(2-methoxy-phenyl)-pyrrolo[2,1-f][1,2,4]triazin-2-ylamino]-phenyl}-piperidin-1-yl)-N-methyl-acetamide] | < 0.1 µM | 0.1 to 1 µM |  |  |
| COc1ccc(Cl)cc1-c1ccc2cnc(Nc3cccc(N4CCN(C[C@@H](C)O)CC4)c3)nn12 [Example 214, (R)-1-(4-{3-[7-(5-Chloro-2-methoxy-phenyl)-pyrrolo[2,1-f][1,2,4]triazin-2-ylamino]-phenyl}-piperazin-1-yl)-propan-2-ol] |  |  | < 0.1 µM | < 0.1 µM |
| COc1ccccc1-c1ccc2cnc(Nc3ccc4c(c3)CCN(C)C4)nn12 [Example 915, [7-(2-Methoxy-phenyl)-pyrrolo[2,1-f][1,2,4]triazin-2-yl]-(2-methyl-1,2,3,4-tetrahydro-isoquinolin-6-yl)-amine] | < 0.1 µM | < 0.1 µM |  |  |

Next, values leading:

| IC50 [1, 3] | IC50 [2, 4] | IC50 ([1]; ALK Kinase Inhibition) | IC50 ([2]; JAK2 Kinase Inhibition) | Compound |
| --- | --- | --- | --- | --- |
| 0.1 to 1 µM | < 0.1 µM |  |  | COc1ccccc1-c1ccc2cnc(Nc3ccc4c(c3)ncn4CCN3CCOCC3)nn12 [Example 1348, [7-(2-Methoxy-phenyl)-pyrrolo[2,1-f][1,2,4]triazin-2-yl]-[1-(2-morpholin-4-yl-ethyl)-1H-benzimidazol-5-yl]-amine] |
| 0.1 to 1 µM | < 0.1 µM |  |  | CN1CCN(c2ccc(Nc3ncc4ccc(-c5cccc(CN(C)S(C)(=O)=O)c5)n4n3)cc2)CC1 [Example 1048, N-Methyl-N-(3-{2-[4-(4-methyl-piperazin-1-yl)-phenylamino]-pyrrolo[2,1-f][1,2,4]triazin-7-yl}-benzyl)-methanesulfonamide] |
|  |  | 0.1 to 1 µM | < 0.1 µM | COc1ccc(-c2ccc3cnc(Nc4ccc5nc(CN6CCN(C)CC6)[nH]c5c4)nn23)cn1 [Example 1527, [7-(6-Methoxy-pyridin-3-yl)-pyrrolo[2,1-f][1,2,4]triazin-2-yl]-[2-(4-methyl-piperazin-1-ylmethyl)-3H-benzimidazol-5-yl]-amine] |
|  |  | < 0.1 µM | 0.1 to 1 µM | COc1cc(N2CCCC(N3CCN(C)CC3)C2)ccc1Nc1ncc2ccc(-c3ccccc3OC)n2n1 (single isomer, unassigned) [Example 1442, {2-Methoxy-4-[3-(4-methyl-piperazin-1-yl)-piperidin-1-yl]-phenyl}-[7-(2-methoxy-phenyl)-pyrrolo[2,1-f][1,2,4]triazin-2-yl]-amine] |
|  |  | 1 to 10 µM | < 0.1 µM | FC1(F)Oc2cccc(-c3ccc4cnc(Nc5ccc6c(c5)CCC(N5CCOCC5)CC6)nn34)c2O1 (centres unmarked) [Example 1535, [7-(2,2-Difluoro-benzo[1,3]dioxol-4-yl)-pyrrolo[2,1-f][1,2,4]triazin-2-yl]-(7-morpholin-4-yl-6,7,8,9-tetrahydro-5H-benzocyclohepten-2-yl)-amine] |
| < 0.1 µM | 1 to 10 µM |  |  | COc1cc(CN2C[C@@H](O)[C@H](O)C2)ccc1Nc1ncc2ccc(-c3ccccc3N(C)S(C)(=O)=O)n2n1 [Example 1236, N-(2-{2-[4-((3R,4R)-3,4-Dihydroxy-pyrrolidin-1-ylmethyl)-2-methoxy-phenylamino]-pyrrolo[2,1-f][1,2,4]triazin-7-yl}-phenyl)-N-methyl-methanesulfonamide] |
| 0.1 to 1 µM | < 0.1 µM |  |  | CCN1CCOC(c2ccc(Nc3ncc4ccc(-c5cnn(C)c5)n4n3)cc2)C1 (centres unmarked) [Example 1189, [4-(4-Ethyl-morpholin-2-yl)-phenyl]-[7-(1-methyl-1H-pyrazol-4-yl)-pyrrolo[2,1-f][1,2,4]triazin-2-yl]-amine] |
| 0.1 to 1 µM | < 0.1 µM |  |  | CN1CCN(c2ccc(Nc3ncc4ccc(-c5cccc(S(=O)(=O)NC(C)(C)C)c5)n4n3)cn2)CC1 [Example 1127, N-tert-Butyl-3-{2-[6-(4-methyl-piperazin-1-yl)-pyridin-3-ylamino]-pyrrolo[2,1-f][1,2,4]triazin-7-yl}-benzenesulfonamide] |
| > 10 µM | < 0.1 µM |  |  | Cn1cnc2cc(Nc3ncc4ccc(-c5cccc(S(=O)(=O)NC(C)(C)C)c5)n4n3)ccc21 [Example 1332, N-tert-Butyl-3-[2-(1-methyl-1H-benzimidazol-5-ylamino)-pyrrolo[2,1-f][1,2,4]triazin-7-yl]-benzenesulfonamide] |
